# From ChEMBL document CHEMBL3745691, “Identification of a small molecule HIV-1 inhibitor that targets the capsid hexamer” (Bioorg Med Chem Lett, 2016)
# The source made the active and inactive calls. The calls are words filed in the database; no cut-off is given here.
# What was measured:
# [1] = Binding affinity to HIV1 capsid protein p24 by SPR assay; parameters: species or system Human immunodeficiency virus 1
# [2] = test system: Human immunodeficiency virus 1; experiment: Inhibition of HIV1 capsid protein p24 interaction with CPSF6 (308-327) at 300 uM
# [3] = test system: Human immunodeficiency virus 1; experiment: Binding affinity to HIV1 capsid protein p24 assessed as turbidity at 100 uM by spectrophotometer analysis
# [4] = test system: Human immunodeficiency virus 1; experiment: Antiviral activity against HIV1 NL4-3 pseudotyped with JR-FL envelope infected in human U87.CD4.CCR5 cells by single-round infection assay; format: functional, organism-based; details: Human immunodeficiency virus 1, NL4-3, U87/CD4/CCR5
# [5] = test system: Human immunodeficiency virus 1; experiment: Inhibition of HIV1 capsid protein p24 interaction with CPSF6 (308-327) at 2.5 uM
# [6] = Cytotoxicity against human U87 cells expressing CD4.CCR5; format: cell-based, U-87MG ATCC
# [7] = Therapeutic index, ratio of CC50 for human U87 cells expressing CD4.CCR5 to IC50 for HIV1 NL4-3 pseudotyped with JR-FL envelope; format: cell-based, U-87MG ATCC; details: read-out: Ratio CC50/IC50
Structure (SMILES),Kd [1],inhibition [2],Activity [3],IC50 [4],inhibition [5],CC50 [6],selectivity ratio [7]
Cc1[nH]c2ccccc2c1CC(=O)N[C@@H](Cc1ccccc1)C(=O)N(C)c1ccccc1,2.53 µM,Active,Active,–,–,–,–
O=C(Cc1c[nH]c2ccccc12)NCC1(c2ccccc2)CC1,38.2 µM,–,Active,18.1 µM,Active,526 µM,> 29
